Literature values in patent US20210361582A1, “COLCHICINE SALICYLATE DERIVATIVES AND METHODS OF TREATMENT” (Murray and Poole Enterprises, LTD., priority 2015, published 2021).

What was measured:
[1] = colchicine 0.5 mg/day in addition to statins and other standard secondary prevention therapies; 532 patients; median 3 years
[2] = at 18 months; 84 patients; aspirin alone vs plus colchicine 1.0-2.0 mg first day then 0.5-1.0 mg/d for 6 months
[3] = in vivo
[4] = at 18 months; 120 patients; conventional treatment with aspirin vs plus colchicine 1.0 to 2.0 mg first day then 0.5 to 1.0 mg/day for 3 months; p=0.004

Row | Structure (SMILES) | prevention of cardiovascular events [1] | recurrence rate (actuarial rates) [2] [%] | bioavailability, inter patient variations ([3]; human) | bioavailability [3] | second peak (resorption from colon), share of totally absorbed colchicine [3] | recurrence rate (primary end point) [4] [%]
1 | COc1cc2c(c(OC)c1OC)-c1ccc(OC)c(=O)cc1[C@@H](NC(C)=O)CC2 [colchicine, N[5,6,7,9-tetrahydro-1,2,3,10-tetratmethoxy 9-oxobenzo[a]heptalen-7-yl],(S)-acetamide] | appeared effective | 24.0 | 20-80% | ca. 45% | about 50% | 10.7
2 | CC(=O)Oc1ccccc1C(=O)O [aspirin] | – | 50.6 | – | – | – | 32.3
